Test results taken from PubChem BioAssay (NCI).
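Interpolation was linear, between the two tested concentrations surrounding the appropriate level; five concentrations were tested over 48 hours in 96-well plates. GI50 is the concentration that inhibits growth by half. TGI denotes the concentration required for complete inhibition of growth.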

Legend:
Test in all cases: NCI tumour cell line growth inhibition, 48 h
[1] = tested on: 786-0 renal
[2] = tested on: NCI-H522 lung
[3] = tested on: HT29 colon
[4] = tested on: OVCAR-5 ovarian
[5] = tested on: M14 melanoma
[6] = tested on: ACHN renal
[7] = tested on: NCI-H23 lung
[8] = tested on: OVCAR-8 ovarian
[9] = tested on: T-47D breast
[10] = tested on: SK-MEL-2 melanoma
[11] = tested on: BT-549 breast
[12] = tested on: A498 renal
[13] = tested on: SR leukemia
[14] = tested on: K-562 leukemia
[15] = tested on: SNB-19 CNS
[16] = tested on: OVCAR-3 ovarian
[17] = tested on: NCI-H460 lung
[18] = tested on: SK-OV-3 ovarian
[19] = tested on: NCI-H226 lung
[20] = tested on: CCRF-CEM leukemia
[21] = tested on: SW-620 colon
[22] = tested on: U251 CNS
[23] = tested on: TK-10 renal
[24] = tested on: HCC-2998 colon
[25] = tested on: A549 NSCLC
[26] = tested on: SF-539 CNS
[27] = tested on: MOLT-4 leukemia
[28] = tested on: SNB-75 CNS
[29] = tested on: UACC-257 melanoma
[30] = tested on: KM12 colon
[31] = tested on: MCF7 breast
[32] = tested on: RPMI-8226 leukemia
[33] = tested on: RXF 393 renal
[34] = tested on: MALME-3M melanoma
[35] = tested on: OVCAR-4 ovarian
[36] = tested on: UACC-62 melanoma
[37] = tested on: HCT-15 colon
[38] = tested on: DU-145 prostate
[39] = tested on: HS 578T breast
[40] = tested on: SK-MEL-5 melanoma
[41] = tested on: SF-295 CNS
[42] = tested on: LOX IMVI melanoma
[43] = tested on: UO-31 renal
[44] = tested on: HOP-92 NSCLC
[45] = tested on: IGROV1 ovarian
[46] = tested on: MDA-MB-435
[47] = tested on: SF-268 CNS
[48] = tested on: HCT-116 colon
[49] = tested on: SK-MEL-28 melanoma
[50] = tested on: COLO 205 colon
[51] = tested on: EKVX NSCLC
[52] = tested on: MDA-MB-231 breast
[53] = tested on: HL-60(TB) leukemia
[54] = tested on: NCI/ADR-RES ovarian
[55] = tested on: PC-3 prostate
[56] = tested on: SN12C renal

CCCCCCC/C=C/[C@H]1O[C@]2(O)C(=O)C=C3C[C@@H](O[C@@H]4O[C@H](CO)[C@@H](O)C(O)[C@@H]4O)C[C@@H]3[C@H]2C=C1C (some centres not stated)
GI50 [1]: 2.35 µM
TGI [1]: 7.08 µM
GI50 [2]: 0.664 µM
TGI [2]: 1.81 µM
GI50 [3]: 4.13 µM
TGI [3]: 10 µM
GI50 [4]: 4.74 µM
TGI [4]: 10.8 µM
GI50 [5]: 1.58 µM
TGI [5]: 6.35 µM
GI50 [6]: 1.13 µM
TGI [6]: 4.28 µM
GI50 [7]: 4.96 µM
TGI [7]: 13 µM
GI50 [8]: 1.01 µM
TGI [8]: 3.92 µM
GI50 [9]: 0.919 µM
TGI [9]: 5.34 µM
GI50 [10]: 3.46 µM
TGI [10]: 9.34 µM
GI50 [11]: 1.18 µM
TGI [11]: 5.53 µM
GI50 [12]: 4.41 µM
TGI [12]: 9.13 µM
GI50 [13]: 0.717 µM
TGI [13]: 2.85 µM
GI50 [14]: 1.04 µM
TGI [14]: 3.55 µM
GI50 [15]: 3.52 µM
TGI [15]: 8.04 µM
GI50 [16]: 1.5 µM
TGI [16]: 5.09 µM
GI50 [17]: 6.61 µM
TGI [17]: 24.3 µM
GI50 [18]: 5.95 µM
TGI [18]: 16.4 µM
GI50 [19]: 4.52 µM
TGI [19]: 13.7 µM
GI50 [20]: 1.04 µM
TGI [20]: 4.9 µM
GI50 [21]: 1.14 µM
TGI [21]: 5.49 µM
GI50 [22]: 1.1 µM
TGI [22]: 4.49 µM
GI50 [23]: 5.51 µM
TGI [23]: 11 µM
GI50 [24]: 4.93 µM
TGI [24]: 9.82 µM
GI50 [25]: 5.98 µM
TGI [25]: 23.4 µM
GI50 [26]: 1.32 µM
TGI [26]: 5.12 µM
GI50 [27]: 0.853 µM
TGI [27]: 2.51 µM
GI50 [28]: 1.24 µM
TGI [28]: 5.93 µM
GI50 [29]: 2.98 µM
TGI [29]: 7.59 µM
GI50 [30]: 3.71 µM
TGI [30]: 8.65 µM
GI50 [31]: 1.05 µM
TGI [31]: 7.88 µM
GI50 [32]: 0.711 µM
TGI [32]: 1.98 µM
GI50 [33]: 0.82 µM
TGI [33]: 2.62 µM
GI50 [34]: 4.8 µM
TGI [34]: 10.3 µM
GI50 [35]: 2.75 µM
TGI [35]: 7.83 µM
GI50 [36]: 1.79 µM
TGI [36]: 6.96 µM
GI50 [37]: 1.04 µM
TGI [37]: 4.59 µM
GI50 [38]: 3.52 µM
TGI [38]: 7.44 µM
GI50 [39]: 5.5 µM
TGI [39]: 28.3 µM
GI50 [40]: 4.31 µM
TGI [40]: 8.53 µM
GI50 [41]: 3.87 µM
TGI [41]: 8.79 µM
GI50 [42]: 0.677 µM
TGI [42]: 1.61 µM
GI50 [43]: 0.666 µM
TGI [43]: 2.36 µM
GI50 [44]: 3.3 µM
TGI [44]: 11.3 µM
GI50 [45]: 2.77 µM
TGI [45]: 15.2 µM
GI50 [46]: 1.21 µM
TGI [46]: 5.69 µM
GI50 [47]: 4.47 µM
TGI [47]: 10.3 µM
GI50 [48]: 0.95 µM
TGI [48]: 3.64 µM
GI50 [49]: 3.97 µM
TGI [49]: 8.62 µM
GI50 [50]: 5.56 µM
TGI [50]: 11.8 µM
GI50 [51]: 4.82 µM
TGI [51]: 11 µM
GI50 [52]: 1.2 µM
TGI [52]: 5.53 µM
GI50 [53]: 0.812 µM
TGI [53]: 4.05 µM
GI50 [54]: 1.26 µM
TGI [54]: 14 µM
GI50 [55]: 1.56 µM
TGI [55]: 11.7 µM
GI50 [56]: 2.8 µM
TGI [56]: 10.7 µM
